Measurements from PubChem BioAssay (NCI).
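48-hour exposure; five concentrations; linearly interpolated endpoints. The concentration for full growth arrest is given as TGI.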

Columns and labels:
Test in all cases: inhibition of tumour cell growth, NCI panel, 48 h
786-0 renal = test system: 786-0 renal
A498 renal = test system: A498 renal
A549 NSCLC = test system: A549 NSCLC
ACHN renal = test system: ACHN renal
BT-549 breast = test system: BT-549 breast
CAKI-1 renal = test system: CAKI-1 renal
CCRF-CEM leukemia = test system: CCRF-CEM leukemia
COLO 205 colon = test system: COLO 205 colon
DU-145 prostate = test system: DU-145 prostate
EKVX NSCLC = test system: EKVX NSCLC
HCC-2998 colon = test system: HCC-2998 colon
HCT-116 colon = test system: HCT-116 colon
HCT-15 colon = test system: HCT-15 colon
HL-60(TB) leukemia = test system: HL-60(TB) leukemia
HOP-62 NSCLC = test system: HOP-62 NSCLC
HOP-92 NSCLC = test system: HOP-92 NSCLC
HS 578T breast = test system: HS 578T breast
HT29 colon = test system: HT29 colon
IGROV1 ovarian = test system: IGROV1 ovarian
K-562 leukemia = test system: K-562 leukemia
KM12 colon = test system: KM12 colon
LOX IMVI melanoma = test system: LOX IMVI melanoma
M14 melanoma = test system: M14 melanoma
MALME-3M melanoma = test system: MALME-3M melanoma
MCF7 breast = test system: MCF7 breast
MDA-MB-231 breast = test system: MDA-MB-231 breast
MDA-MB-435 = test system: MDA-MB-435
MDA-N = test system: MDA-N
MOLT-4 leukemia = test system: MOLT-4 leukemia
NCI-H226 lung = test system: NCI-H226 lung
NCI-H23 lung = test system: NCI-H23 lung
NCI-H460 lung = test system: NCI-H460 lung
NCI-H522 lung = test system: NCI-H522 lung
NCI/ADR-RES ovarian = test system: NCI/ADR-RES ovarian
OVCAR-3 ovarian = test system: OVCAR-3 ovarian
OVCAR-4 ovarian = test system: OVCAR-4 ovarian
OVCAR-5 ovarian = test system: OVCAR-5 ovarian
OVCAR-8 ovarian = test system: OVCAR-8 ovarian
PC-3 prostate = test system: PC-3 prostate
RPMI-8226 leukemia = test system: RPMI-8226 leukemia
RXF 393 renal = test system: RXF 393 renal
SF-268 CNS = test system: SF-268 CNS
SF-295 CNS = test system: SF-295 CNS
SF-539 CNS = test system: SF-539 CNS
SK-MEL-2 melanoma = test system: SK-MEL-2 melanoma
SK-MEL-28 melanoma = test system: SK-MEL-28 melanoma
SK-MEL-5 melanoma = test system: SK-MEL-5 melanoma
SK-OV-3 ovarian = test system: SK-OV-3 ovarian
SN12C renal = test system: SN12C renal
SNB-19 CNS = test system: SNB-19 CNS
SNB-75 CNS = test system: SNB-75 CNS
SR leukemia = test system: SR leukemia
SW-620 colon = test system: SW-620 colon
T-47D breast = test system: T-47D breast
TK-10 renal = test system: TK-10 renal
U251 CNS = test system: U251 CNS
UACC-257 melanoma = test system: UACC-257 melanoma
UACC-62 melanoma = test system: UACC-62 melanoma
UO-31 renal = test system: UO-31 renal

Measured: TGI

N#Cc1nc(N)c(C#N)[nH]1
> 100 µM: all assays above
